Measurements reported in patent publication US20150238477A1, “Method of Treating Lung Adenocarcinoma” (EXELIXIS, INC., priority 2012, published 2015).

Tests used:
RET = molecular target: T1, RET (Homo sapiens, UniProt P07949, C634W); assay: phosphorylation of RET in TT xenograft tumors in vivo (Western immunoblot); design: species or system mice
T1 construct: endogenous in cells; host or cells: TT cells (human medullary thyroid carcinoma), in culture or as xenograft tumours in nu/nu mice

AKT and ERK = assay: phosphorylation of AKT and ERK in TT xenograft tumors in vivo; design: species or system mice; details: single 100-mg/kg oral dose
Experimental: Levels of phosphorylated and total RET and were determined in pooled lysates by Western immunoblot analysis. In a separate study, mice bearing TT tumors were administered a single oral dose of cabozantinib (100 mg/kg) or water vehicle, and levels of phosphorylated and total RET, AKT, and ERK in tumor lysates were determined at the indicated time points post dose. Densitometric quantitation of the duration of inhibition of phosphorylation of RET versus plasma concentrations of cabozantinib. Representative Western blot images are shown. […] This effect was reversible as RET phosphorylation returned to basal levels by 48 hours after treatment as depicted in FIG. 1C.

TT xenograft tumors = assay: TT xenograft tumor growth; format: in vivo, nu/nu mice; details: oral once daily, 21 days
Experimental: (§1) Nu/nu mice bearing TT tumors were orally administered once daily water vehicle (□) or cabozantinib at 3 mg/kg (∇), 10 mg/kg (◯), 30 mg/kg (♦), or 60 mg/kg (⋄) for 21 days. Tumor weights were determined twice weekly. Data points represent the mean tumor weight (in milligrams) and SE for each treatment group. Circulating calcitonin levels were determined in serum preparations from whole blood collected after the final indicated doses (* indicates a significant, P <0.05, reduction in circulating calcitonin when compared to serum samples from vehicle-treated control animals).

[1] = plasma concentrations in TT xenograft study; format: in vivo, nu/nu mice; details: 30- and 60-mg/kg doses, oral once daily
[2] = mouse, in vivo
Experimental: as §1
. Given that TT xenograft tumors are known to secrete high amounts of human calcitonin that correlates with tumor size, serum concentrations of circulating calcitonin were determined at the end of the dosing period. […]; P <0.005) at both the 30- and 60-mg/kg doses when compared to vehicle control animals, as depicted in FIG. 2B. Moreover, this reduction in circulating plasma calcitonin correlated with TT tumor growth inhibition described above. […]

[3] = molecular target: T2, KIF5B-RET fusion-positive NSCLC (Homo sapiens, UniProt P07949); assay: case study, phase 1 monotherapy in a patient with KIF5B-RET fusion-positive NSCLC; format: in vivo
T2 construct: expression of variant 1 transcripts (KIF5B exon 15; RET exon 12); endogenous in cells; host or cells: lung adenocarcinoma cells of the patient (pleural effusion cells); the other entry of the earlier key: KIF5B (P33176, Kinesin-1 heavy chain)
T2 sequence (P07949 with tags, fused parts or gaps): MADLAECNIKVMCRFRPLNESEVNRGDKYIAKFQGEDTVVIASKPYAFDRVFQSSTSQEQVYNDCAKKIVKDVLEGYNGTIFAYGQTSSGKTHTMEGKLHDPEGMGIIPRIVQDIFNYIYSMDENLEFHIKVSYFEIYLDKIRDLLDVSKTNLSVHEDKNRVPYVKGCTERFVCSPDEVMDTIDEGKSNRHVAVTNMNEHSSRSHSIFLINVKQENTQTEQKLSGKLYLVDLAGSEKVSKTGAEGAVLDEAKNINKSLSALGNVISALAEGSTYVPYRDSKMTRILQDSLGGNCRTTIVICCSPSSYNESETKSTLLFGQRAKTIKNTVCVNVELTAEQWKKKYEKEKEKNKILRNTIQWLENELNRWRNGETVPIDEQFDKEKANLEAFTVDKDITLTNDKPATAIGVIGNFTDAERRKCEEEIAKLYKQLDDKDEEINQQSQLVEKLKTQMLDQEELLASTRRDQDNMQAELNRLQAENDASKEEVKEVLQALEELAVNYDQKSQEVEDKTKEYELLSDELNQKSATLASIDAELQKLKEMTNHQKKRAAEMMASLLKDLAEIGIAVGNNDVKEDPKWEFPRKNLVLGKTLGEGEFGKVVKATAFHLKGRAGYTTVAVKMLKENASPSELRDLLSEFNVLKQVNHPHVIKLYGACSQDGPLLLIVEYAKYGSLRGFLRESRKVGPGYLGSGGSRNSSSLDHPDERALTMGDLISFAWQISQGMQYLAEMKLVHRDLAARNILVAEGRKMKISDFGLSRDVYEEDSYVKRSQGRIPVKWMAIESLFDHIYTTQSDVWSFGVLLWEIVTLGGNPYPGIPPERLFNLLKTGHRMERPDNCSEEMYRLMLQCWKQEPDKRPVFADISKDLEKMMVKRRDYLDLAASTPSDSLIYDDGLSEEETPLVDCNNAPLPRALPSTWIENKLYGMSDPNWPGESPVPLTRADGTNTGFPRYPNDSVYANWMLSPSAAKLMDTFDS
From the text: A person who was a former smoker presented in April 2009 for evaluation of a right pleural effusion. […] There was also no tumor in either the neck or thyroid on the CT scans. The patient was diagnosed as having stage IIIB (cT4N0M0, 6th edition of the International System for Staging Lung cancer) adenocarcinoma of the lung. […] Re-growth of primary tumor was, however, reported 8 months after the end of therapy. The patient subsequently received 13 cycles of docetaxel as second-line treatment and 2 cycles of an investigational drug (anti-HER2 [human epidermal growth factor receptor type2] antibody) as third-line treatment. […] Yamamoto, N., Nokihara, H., Wakui, H., Yamada, Y., Frye, J., DeCillis, A., and Tamura, T. A phase 1 multiple ascending dose study of cabozantinib (XL184) monotherapy in Japanese patients with advanced solid tumors. Molecular Cancer Therapeutics. 2011 10 suppl 1 (abstr C26) and Nokihara, H., Yamamoto, N., Nakamichi, S., Wakui, H., Yamada, Y., Frye, J., Decillis, A., and Tamura, T. in Annals of Oncology, Vol. 23, Supplement 9, published September 17, 2012.
In February 2012, they terminated cabozantinib monotherapy due to progressive disease.

medullary thyroid cancer = details: 25 of 37 patients with MTC; cited from earlier work
KIF5B-RET = molecular target: T3, KIF5B-RET (Homo sapiens, UniProt P07949); details: in vitro studies; cited from earlier work
T3 sequence (P07949 713-1063 limits assumed): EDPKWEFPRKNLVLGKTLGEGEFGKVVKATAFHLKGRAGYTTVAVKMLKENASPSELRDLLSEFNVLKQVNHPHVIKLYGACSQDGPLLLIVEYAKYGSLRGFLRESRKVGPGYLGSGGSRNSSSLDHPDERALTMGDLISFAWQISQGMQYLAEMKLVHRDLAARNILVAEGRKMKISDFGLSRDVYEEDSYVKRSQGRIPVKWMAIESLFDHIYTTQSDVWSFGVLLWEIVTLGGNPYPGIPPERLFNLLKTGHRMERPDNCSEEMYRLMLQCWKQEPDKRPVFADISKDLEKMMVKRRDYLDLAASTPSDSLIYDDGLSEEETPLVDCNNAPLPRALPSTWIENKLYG

T1 sequence (P07949 29-1114 C634W): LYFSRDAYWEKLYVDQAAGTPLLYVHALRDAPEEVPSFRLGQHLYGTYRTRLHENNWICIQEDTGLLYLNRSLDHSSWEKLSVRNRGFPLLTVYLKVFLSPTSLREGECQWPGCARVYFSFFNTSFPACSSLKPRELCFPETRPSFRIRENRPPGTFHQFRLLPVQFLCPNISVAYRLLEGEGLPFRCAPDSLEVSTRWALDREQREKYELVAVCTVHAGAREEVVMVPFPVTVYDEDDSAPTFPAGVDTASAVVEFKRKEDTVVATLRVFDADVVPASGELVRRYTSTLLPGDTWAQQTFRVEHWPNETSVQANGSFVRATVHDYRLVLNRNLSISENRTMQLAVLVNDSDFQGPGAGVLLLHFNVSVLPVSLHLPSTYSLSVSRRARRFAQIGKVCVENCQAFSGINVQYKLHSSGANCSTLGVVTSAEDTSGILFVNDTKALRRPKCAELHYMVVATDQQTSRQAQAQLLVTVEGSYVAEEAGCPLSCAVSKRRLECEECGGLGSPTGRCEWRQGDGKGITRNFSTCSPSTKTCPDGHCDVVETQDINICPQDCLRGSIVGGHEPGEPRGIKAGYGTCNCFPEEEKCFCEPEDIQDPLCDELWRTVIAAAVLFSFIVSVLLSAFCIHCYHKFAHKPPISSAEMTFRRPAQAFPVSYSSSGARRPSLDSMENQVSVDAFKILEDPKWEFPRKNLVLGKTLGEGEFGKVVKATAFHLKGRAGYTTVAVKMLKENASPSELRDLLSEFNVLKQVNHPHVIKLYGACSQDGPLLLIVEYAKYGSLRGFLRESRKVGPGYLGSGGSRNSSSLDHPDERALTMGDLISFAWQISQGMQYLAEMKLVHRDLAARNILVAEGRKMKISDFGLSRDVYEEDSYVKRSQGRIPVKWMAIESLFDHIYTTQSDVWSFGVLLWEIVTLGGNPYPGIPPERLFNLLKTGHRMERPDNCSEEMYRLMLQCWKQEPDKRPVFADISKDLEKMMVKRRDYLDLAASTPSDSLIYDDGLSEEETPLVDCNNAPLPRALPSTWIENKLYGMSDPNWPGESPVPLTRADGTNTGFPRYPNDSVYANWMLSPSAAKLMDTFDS

With `COc1cc2nccc(Oc3ccc(NC(=O)C4(C(=O)Nc5ccc(F)cc5)CC4)cc3)c2cc1OC` [Compound 1, N-(4-{[6,7-bis(methyloxy)quinolin-4-yl]oxy}phenyl)-N′-(4-fluorophenyl)cyclopropane-1,1-dicarboxamide] the “time of inhibition of phosphorylation of RET post dose” value (RET; single 100-mg/kg oral dose) was 4 to 24 h, the “time at which RET phosphorylation returned to basal levels” value (RET; single 100-mg/kg oral dose, after treatment) was ≤ 48 h and the “inhibition of phosphorylation of RET in tumors” value (RET; single ascending oral dose, tumors collected 4 h post dose) was “dose-dependent inhibition of phosphorylation of RET”. For the same molecule, the “time of reduced phosphorylation levels of AKT and ERK post dose” value (AKT and ERK) was 4 to 24 h, the “TT xenograft tumor growth” value (TT xenograft tumors; 10- and 30-mg/kg doses) was “dose-dependent inhibition” and the “TT xenograft tumor growth outcome” value (TT xenograft tumors; 30- and 60-mg/kg doses) was “stable disease”. The “peak cyclical plasma concentrations” value [1] was 3,000 to 45,000 nmol/L, the “tolerability (stable body weights)” value [2] was “well tolerated” and the “adverse event leading to drug interruptions” value ([3]; during 10 cycles (months) of therapy, without clinical symptoms of pancreatitis) was “grade 3 serum lipase elevations”. For the same molecule, the “response of primary lung tumor on chest CT” value ([3]; starting dose 40 mg once a day, at 9 weeks, confirmed at 17 weeks) was “partial response”, the tumor reduction ([3]; starting dose 40 mg once a day, chest CT at 9 weeks) was 40.1% and the “patients with confirmed partial response or stable disease for 6 months or longer” value (medullary thyroid cancer) was 68%.
For `CNC(=O)c1cc(Oc2ccc(NC(=O)Nc3ccc(Cl)c(C(F)(F)F)c3)cc2)ccn1` [sorafenib], the “growth and signaling properties mediated by KIF5B-RET after treatment” value (KIF5B-RET) is listed as “diminished”.
